Our source for the pKa values is ChEMBL document CHEMBL4304793, “Evaluation of a Series of β-Secretase 1 Inhibitors Containing Novel Heteroaryl-Fused-Piperazine Amidine Warheads” (ACS Med Chem Lett, 2019).

A short description of the series: Dissociation constant, pKa of compound. In kind it is physicochemical.
As a reminder, the pKa is the pH at which an ionisable group is half protonated. A higher pKa goes with a group that holds its proton tightly. In turn, `C[C@@]1(c2cc(NC(=O)c3ccc(C#N)cn3)ccc2F)Cn2ncnc2C(N)=N1` registered a pKa of 6.5.
With `C[C@@]1(c2cc(NC(=O)c3ccc(C#N)cn3)ccc2F)Cn2ccnc2C(N)=N1` the figure was 8.2.
`C[C@@]1(c2cc(NC(=O)c3ccc(C#N)cn3)ccc2F)Cn2cccc2C(N)=N1`: the pKa worked out at 10.3.
As for `C[C@@]1(c2cc(NC(=O)c3ccc(C#N)cn3)ccc2F)Cn2cnnc2C(N)=N1`, the figure is 6.4.
As for `C[C@@]1(c2cc(NC(=O)c3ccc(C#N)cn3)ccc2F)Cn2nnnc2C(N)=N1`, the figure is 5.1; as for `C[C@@]1(c2cccc(NC(=O)c3ccc(C#N)cn3)c2)Cn2nccc2C(N)=N1`, 8.5; as for `C[C@@]1(c2cc(NC(=O)c3ccc(C#N)cn3)ccc2F)Cn2cncc2C(N)=N1`, 9.
Regarding `C[C@@]1(c2cc(NC(=O)c3ccc(C#N)cn3)ccc2F)Cn2nncc2C(N)=N1`, the pKa came to 7.1.
